From patent publication US20220304958A1, “SMALL MOLECULE INHIBITORS OF A PROTEIN COMPLEX” (THE REGENTS OF THE UNIVERSITY OF CALIFORNIA, priority 2019, published 2022)
Like-named read-outs stand apart in the source and are kept apart here.

Legend:
[1] = system: HUVEC; test: Genome-wide RNA sequencing of HUVEC; assay type: cell-based, human; details: for effects on gene expression by RNA-Seq: same conditions (75 μM, 24 h)
Procedure: Cell culture. hCMEC/D3 cells at passages 30-37 were grown to confluence on collagen-coated plates and cultured using in EGM-2 MV medium and supplemented with complements obtained from the manufacturer (Lonza) as previously reported (31). HUVEC (Lonza) at passages 4-7 were grown to confluence on gelatin-coated plates and maintained using complete EGM-2 media (Lonza). HKi2, 10 mM in DMSO, was maintained at room temperature for 30 min rotating before use. Cells were then treated with HKi2 at the concentrations and times indicated for each experiment. Vehicle cells were treated with the same volume of DMSO as used with HKi2. Cells were maintained at 37° C. in 95% air and 5% CO2. Genome-wide RNA sequencing. The quantity (ND-1000 spectrophotometer; NanoDrop Technologies) and quality (Bioanalyzer; Agilent) of total RNA were analyzed. Only RNA with a RNA integrity number (RIN) greater than 8 RNA was used for library preparation. Libraries were generated using Illumina's TruSeq Stranded mRNA Sample Prep kit using 400 ng RNA. RNA libraries were multiplexed and sequenced with 100-bp […] single-end reads (SR100) to a depth of 30 million reads per sample on an Illumina HiSeq2500. Fastq files from RNA-seq experiments were mapped to the human genome (GRCh primary assembly release 96) using Hisat2 with default parameters. All bioinformatics analyses were conducted in R using the […] package RNAseq workflows. Differential gene expression analysis was conducted with EdgeR.

[2] = biological target: T1, HEG1-KRIT1 interaction (Homo sapiens, UniProt O00522); test: Flow cytometry assay for the HEG1-KRIT1 FERM domain interaction (competition binding on HEG1 matrix beads); details: read-out: IC50
T1 construct: His6-EGFP-KRIT1 (WT) FERM domain (417-736) and KRIT1 (L717,721A) mutant were cloned into pETM-11; His6 (N); made in house; host or cells: E. coli BL21 Star (DE3)
Procedure: Bead Coupling. SPHERO Neutravidin Polystyrene Particles, […] (Spherotech) were washed twice with wash buffer (20 mM Tris, 150 mM NaCl. pH 7.4 containing 0.01% NP-40, and 1 mM EDTA). Prior to incubation with biotin-tagged HEG 1 cytoplasmic tail protein, an appropriate volume of bead slurry was passivated to inhibit non-specific binding by incubation for 30 minutes at room temperature in reaction buffer containing 0.1% BSA (20 mM Tris, 150 mM NaCl, pH 7.4 0.01% NP-40, 1 mM EDTA, 1 mM DTT, and 0.1% BSA). Passivated beads were collected by centrifugation, resuspended to 3,600 particles/μl in reaction buffer and biotinylated HEG1 tail was added to a final concentration of 150 nM and incubated overnight on a rotator at 4° C. The beads were washed three times by centrifugation with ice-cold reaction buffer to remove unbound HEG1 peptide. Beads were diluted such that a final concentration of 2000 beads/μL were available for addition to assay plates.
Flow cytometry assay. A final volume of 100 μl containing 140 nM EGFP-KRIT1 FERM domain, with 10% DMSO or 10% compounds in DMSO, was incubated for 15 minutes at room temperature on a rotator. 100 μl of beads were added to the mixture for a final volume of 200 μl at 1,000 particles/μl with 70 nM EGFP-KRIT1 and incubated for 15 minutes at room temperature on a rotator. The control beads were: without KRIT1 (minimum signal); with KRIT1 (maximum signal); and with KRIT1 plus 2 μM HEG1 7-mer (positive blocking control). The EGFP fluorescence was measured using a BD Accuri flow cytometer. For screening purposes, the final volume of the reaction was scaled down to 10 μl and samples were processed as previously described (27). For FIGS. 1D-1F, 2B, and 3E, a representative experiment is shown of at the least 3 independent repeats.
Assay plate assembly. Plate assays were performed in 384-well microtiter plates (Greiner Bio-one, #784101). Reaction buffer. HEG1-coupled beads, and EGFP-KRIT-FERM constructs were added using a MultiFlo™ Microplate Dispenser (BioTek Instruments, Inc.). Compounds were added to single-point assay plates pre-loaded with reaction buffer using a Biomek^NX liquid handler (BeckmanCoulter) equipped with a […] pintool (V & P Scientific, Inc.). Compound libraries were dispensed to a final concentration of 10 μM. An equal volume (10 nL) of DMSO was added to the vehicle control wells. Following the addition of library compounds, 5 μL of assay buffer was added and the plates were mixed before addition of 5 μL of the protein-coupled bead mixtures; Plates were protected from light and incubated on a rotator for 15 minutes at room temperature. Binding of EGFP-KRIT to HEG1 coupled beads was evaluated using an Accuri C6 flow cytometer.
Data Acquisition. Assay plates were sampled using the HyperCyt™ high throughput flow cytometry platform (Intellicyt; Albuquerque, N. Mex.). During sampling, the probe moves from well to well and samples 1-2 μL from each well pausing 0.4 sec in the air before sampling the next well. The resulting sample stream consisting of 384 separated samples is delivered to an Accuri C6 flow cytometer (BD Biosciences; San Jose, Calif.). Plate data are acquired as time-resolved files that are parsed by software-based well identification algorithms and merged with compound library files. Plate performance was validated using the Z-prime calculation (28).
Compounds that satisfied hit selection criteria in the primary screen were cherry-picked from compound storage plates and tested to confirm activity and determine potency. Dose response data points were fitted by Prism software (GraphPad Software Inc., San Diego, Calif.) using nonlinear least-squares regression in a sigmoidal dose-response model with variable slope, also known as the 4-parameter logistic equation.

[3] = Aqueous solubility in assay buffer; assay type: physicochemical
[4] = log P; assay type: physicochemical; details: method not stated (FIG. 2A)
[5] = system: PARD3 binding to HEG1; test: PARD3 pulldown assay with HEG1 matrix; parameters: species or system human (HUVEC lysates); details: 35 μM compound, HUVEC lysates, HEG1 WT matrix
Procedure: PARD3 pulldown assay. Neutravidin agarose beads (Thermo Fisher) matrix with wild-type HEG1 cytoplasmic tail (1274-1381) and ΔYF (1274-1379) were previously described (5, 26). HUVEC were collected in cold lysis buffer (50 mM Tris-HCl, pH 7.4, 100 mM NaCl, 5 mM MgCl2, 0.5% NP-40) plus protease inhibitor cocktail (Roche). A total of 20 μl of HEG1 matrix was added to 600 μg of clarified lysates and incubated at 4° C. overnight while rotating. All conditions contained either vehicle DMSO, 35 μM HKi2 or 35 μM 2-hydroxy-1-naphthoic acid. After three washes with cold lysis buffer, beads were mixed with sample buffer and proteins were separated by SDS-PAGE. Bound PARD3 was detected by using polyclonal Rabbit anti-PARD3 (Millipore, 07-330) antibody.

[6] = system: KLF4 and KLF2 mRNA; test: KLF4 and KLF2 mRNA expression in hCMEC/D3 cells by qPCR; assay type: cell-based, human
Procedure: (§1) Cell culture. hCMEC/D3 cells at passages 30-37 were grown to confluence on collagen-coated plates and cultured using in EGM-2 MV medium and supplemented with complements obtained from the manufacturer (Lonza) as previously reported (31). HUVEC (Lonza) at passages 4-7 were grown to confluence on gelatin-coated plates and maintained using complete EGM-2 media (Lonza). HKi2, 10 mM in DMSO, was maintained at room temperature for 30 min rotating before use. Cells were then treated with HKi2 at the concentrations and times indicated for each experiment. Vehicle cells were treated with the same volume of DMSO as used with HKi2. Cells were maintained at 37° C. in 95% air and 5% CO2. RNA extraction and qRT-PCR. HUVECs total RNA were isolated using MagMAXTM-96 for Microarrays Total RNA Isolation Kit, according to the manufacturer's protocol (Thermo Fisher Scientific Cat #AM1839). qPCR analysis, single-stranded cDNA was produced from 10 ng RNA isolated from HUVECs using PrimeScriptTM RT Master Mix according to the manufacturer's protocol (Takara Cat. #R[…]). The levels of genes were analyzed using iTaqTM Universal SYBR Green (BioRad Cat #1725122) and thermal cycler (CFX96 Real-Time System; Bio-Rad) according to the manufacturer's protocol. Actin mRNA levels was used as internal control, and the 2^-ΔΔCT method was used for data analysis.

[7] = system: PI3K/Akt signaling; test: PI3K/Akt signaling in hCMEC/D3 cells by Western blot; assay type: cell-based, human; details: hCMEC/D3, 50 μM, 1 h
Procedure: Cell culture. hCMEC/D3 cells at passages 30-37 were grown to confluence on collagen-coated plates and cultured using in EGM-2 MV medium and supplemented with complements obtained from the manufacturer (Lonza) as previously reported (31). HUVEC (Lonza) at passages 4-7 were grown to confluence on gelatin-coated plates and maintained using complete EGM-2 media (Lonza). HKi2, 10 mM in DMSO, was maintained at room temperature for 30 min rotating before use. Cells were then treated with HKi2 at the concentrations and times indicated for each experiment. Vehicle cells were treated with the same volume of DMSO as used with HKi2. Cells were maintained at 37° C. in 95% air and 5% CO2. Western blotting and immunoprecipitation. […] Cell lysates were spun at 20,000×g for 15 minutes at 4° C. The PI3 Kinase was immunoprecipitated using the mouse monoclonal antibody as described in the manufacturer instructions and supernatants were stored at -80° C. Samples were resolved on 4-12% gradient gel and blotted using specific antibodies, as indicated. Band intensity was determined using a Li-Cor system and values obtained for phosphoproteins were normalized to the total protein in the same sample. Antibodies to phospho-Akt-Ser473 (clone: 193H12; rabbit mAb; #4058; 1:250), Akt (clone: 40D4; mouse mAb; #2920; 1:500), phospho-PI3 Kinase p85 […] (rabbit polyclonal; #4228; 1:500) were from Cell Signaling. […]

[8] = system: KLF4 and KLF2 mRNA; test: KLF4 and KLF2 mRNA expression in HUVEC by qPCR; assay type: cell-based, human; details: dose response, 24 hours
Procedure: as §1

[9] = system: klf2a; test: klf2a reporter Tg(klf2a:H2B-EGFP) zebrafish embryos; assay type: in vivo; details: 4 μM, 4 h, added at 26 hpf, imaged at 30 hpf
Excerpt: Zebrafish. A previously reported transgenic zebrafish line Tg(klf2a:H2B-EGFP) was used to monitor the expression of klf2a (32, 33). […] At 30 hpf, these treated embryos were scanned for EGFP expression by Zeiss LSM 880 Airiscan.

[10] = Table 2, flow cytometry-screening assay, NI = no inhibition detected up to 500 μM

T1 sequence (O00522 417-736): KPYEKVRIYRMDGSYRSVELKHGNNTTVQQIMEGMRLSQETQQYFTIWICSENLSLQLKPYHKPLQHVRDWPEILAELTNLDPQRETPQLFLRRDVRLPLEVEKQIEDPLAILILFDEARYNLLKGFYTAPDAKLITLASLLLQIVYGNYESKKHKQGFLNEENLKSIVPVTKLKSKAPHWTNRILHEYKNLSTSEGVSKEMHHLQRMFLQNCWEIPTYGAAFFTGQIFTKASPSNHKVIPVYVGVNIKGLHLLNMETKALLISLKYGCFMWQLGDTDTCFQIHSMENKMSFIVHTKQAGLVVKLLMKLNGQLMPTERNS

Oc1ccc2ccccc2c1 [Compound 10, naphthalene-2-ol]
effects on gene expression by RNA-Seq [1]: no significant effects
IC50 [2, 10]: > 500 µM

CC(NC(=O)c1ccccc1N=Cc1c(O)ccc2ccccc12)c1ccccc1 (centres unmarked) [Sirtinol (Hki1), 2-[[(2-hydroxy-1-naphthalenyl)methylene]amino]-N-(1-phenylethyl)-benzamide, reference compound]
solubility ([3]; assay buffer, aqueous buffer, in the buffer conditions of the assay): < 50 µM
logP [4]: 5.7
IC50 ([2]; inhibition of the HEG1-KRIT1 interaction, flow cytometry assay): ~10 µM

O=C(O)c1c(O)ccc2ccccc12 [Compound 9, 2-hydroxy-1-naphthoic acid]
effects on gene expression by RNA-Seq [1]: no significant effects
PARD3 binding to HEG1 [5]: no effects
IC50 [2, 10]: > 500 µM
KLF4 or KLF2 elevation ([6]; hCMEC/D3, 25 μM, 4 hours): did not elevate

O=Cc1c(O)ccc2ccccc12 [2-hydroxy-1-naphtaldehyde (Hki2), 2-hydroxy-1-naphthaldehyde]
increase in Akt activation (pAkt-S473) ([7]; Western blot): 2.2 fold
increase in PI3K activity ([7]; phospho-p85): 2 fold
KLF4 and KLF2 mRNA levels [8]: upregulated
solubility in aqueous solution ([3]; qualitative, compared with HKi1): largely improved
VEGFA gene expression ([1]; 75 μM, 24 h, RNA-seq): upregulation
genes differentially expressed between treatment and vehicle control ([1]; 75 μM, 24 h, corrected P<0.05, ≥2.5-fold change): 457 genes
CCL2 (Monocyte chemoattractant protein) expression, ratio experimental/control FPKM ([1]; 75 μM, RNA-Seq, n=3): −7.95
CXCR4 (C-X-C chemokine receptor type 4) expression, ratio experimental/control FPKM ([1]; 75 μM, RNA-Seq, n=3): −4.41
KLF2 expression, ratio experimental/control FPKM ([1]; 75 μM, RNA-Seq, n=3): 3.07
KLF4 expression, ratio experimental/control FPKM ([1]; 75 μM, RNA-Seq, n=3): 3.89
THBD (Thrombomodulin) expression, ratio experimental/control FPKM ([1]; 75 μM, RNA-Seq, n=3): 8.34
THBSI (Thrombospondin 1) expression, ratio experimental/control FPKM ([1]; 75 μM, RNA-Seq, n=3): −5.78
nuclear EGFP (klf2a reporter) in arterial and venous endothelium [9]: increase
PARD3 binding to HEG1 [5]: no effects
KLF4 and KLF2 mRNA levels ([6]; hCMEC/D3, 25 μM, 12 h): upregulated
KLF2 upregulation, fold increase ([6]; hCMEC/D3, 50 μM, 4 h): ~1.5 fold
KLF4 upregulation, fold increase ([6]; hCMEC/D3, 50 μM, 4 h): ~3.5 fold
KLF2 mRNA levels, fold increase ([6]; hCMEC/D3, 50 μM, 12 h): ~2.3 fold
KLF4 mRNA levels, fold increase ([6]; hCMEC/D3, 50 μM, 12 h): ~6.5 fold
KLF4 levels, fold increase ([6]; hCMEC/D3, 50 μM, 24 h): ~6 fold
